Test results taken from US6451807B1, “Methods of treating sexual dysfunction in an individual suffering from a retinal disease, class 1 congestive heart failure, or myocardial infarction using a PDE5 inhibitor” (Lilly Icos, LLC., priority 1999, dated 2002).

Assays:
Type in all cases: in vivo, human
[1] = system: male erectile dysfunction; assay: Combined clinical studies, IIEF erectile function domain
[2] = system: men with mild to severe erectile dysfunction; assay: Randomized, double-blind, placebo-controlled on demand study in male erectile dysfunction (Example 7); details: for patients who rated their ability to maintain an erection (IIEF Question 4) during intercourse as almost always or always / patients who rated their penetration ability (IIEF Question 3) as almost always or always: at endpoint
Experimental: A third clinical study was a randomized, double-blind, placebo-controlled study using a compound of structural formula (I) (Study Drug) administered “on demand” to patients with male erectile dysfunction. The Study Drug was administered over a period of eight weeks in the treatment of male erectile dysfunction (ED). Erectile dysfunction (ED) is defined as the persistent inability to attain and/or maintain an erection adequate to permit satisfactory sexual performance. “On demand” dosing is defined as intermittent administration of Study Drug prior to expected sexual activity. The study population consisted of 212 men, at least 18 years of age, with mild to severe erectile dysfunction. The Study Drug was orally administered as tablets of coprecipitate made in accordance with Butler U.S. Pat. No. 5,985,326. […] Treatment with all nitrates, azole antifungals (e.g., ketoconazole or itraconazole), warfarin, erythromycin, or antiandrogens was not allowed at any time during the study. No other approved or experimental medications, treatments, or devices used to treat ED were allowed. Forty-one subjects were administered a placebo. The two primary efficacy variables were the ability of a subject to penetrate their partner and their ability to maintain an erection during intercourse, as measured by the International Index of Erectile Function (IIEF). The IIEF Questionnaire contains fifteen questions, and is a brief, reliable measure of erectile function. See R. C. Rosen et al., Urology, 49, pp. 822-830 (1997). Secondary efficacy variables were IIEF domain scores for erectile function, orgasmic function, sexual desire, intercourse satisfaction, and overall satisfaction; the patient's ability to achieve an erection, ability to insert their penis into their partner's vagina, completion of intercourse with ejaculation, satisfaction with the hardness of their erection, and overall satisfaction, all as measured by the Sexual Encounter Profile (SEP) diary; and a global assessment question asked at the end of the treatment period. The SEP is a patient diary instrument documenting each sexual encounter during the course of the study. The safety analysis of the study included all enrolled subjects, and was assessed by evaluating all reported adverse events, and changes in clinical laboratory values, vital signs, physical examination results, and electrocardiogram results.

[3] = system: clinical study subjects; assay: Combined clinical studies, treatment-emergent adverse events
Source text: However, it also was observed from the combined clinical studies that the percent of treatment-emergent adverse events increased with an increasing unit dose of the compound of structural formula (I), as illustrated in the following table.

[4] = system: healthy male volunteers; assay: Clinical pharmacology drug interaction study with short-acting nitrates (Example 5)
Experimental: This study was a randomized, double-blind, placebo-controlled, two-way crossover design clinical pharmacology drug interaction study that evaluated the hemodynamic effects of concomitant administration of a selective PDE5 inhibitor Study Drug (i.e., the compound of structural formula (I)) and short-acting nitrates on healthy male volunteers. In this study, the subjects received either the Study Drug at a dose of 10 mg or a placebo, daily for seven days. On the sixth or seventh day, the subjects received sublingual nitroglycerin (0.4 mg) while supine on a tilt table. The nitroglycerin was administered 3 hours after Study Drug dosing, and all subjects kept the nitroglycerin tablet under their tongue until it completely dissolved. The subjects were tilted to 70° head-up every 5 minutes for a total of 30 minutes with measurement of blood pressure and heart rate. There were no discontinuations among the twenty-two healthy male subjects (ages 19 to 60 years old) that entered this study.

[5] = 2 to 25 mg on demand, eight weeks
[6] = unit dose of about 1 to about 20 mg
[7] = 10 mg daily for seven days, sublingual nitroglycerin 0.4 mg, preliminary analysis
[8] = 10 mg daily for seven days, preliminary analysis

Structure (SMILES): CN1CC(=O)N2[C@H](c3ccc4c(c3)OCO4)c3[nH]c4ccccc4c3C[C@@H]2C1=O [Compound 5, (6R-trans)-6-(1,3-benzodioxol-5-yl)-2,3,6,7,12,12a-hexahydro-2-methylpyrazino[1′,2′:1,6]pyrido[3,4-b]indole-1,4-dione]
- treatment of male erectile dysfunction ([1]; combined results from clinical studies): effectively treats male erectile dysfunction
- IIEF erectile function domain (change from baseline), Mean ± SD ([1]; unit dose 2 mg): 3.9 ± 6.1
- IIEF erectile function domain (change from baseline), Mean ± SD ([1]; unit dose 5 mg): 6.6 ± 7.1
- IIEF erectile function domain (change from baseline), Mean ± SD ([1]; unit dose 10 mg): 7.9 ± 6.7
- IIEF erectile function domain (change from baseline), Mean ± SD ([1]; unit dose 25 mg): 9.4 ± 7.0
- IIEF erectile function domain (change from baseline), Mean ± SD ([1]; unit dose 50 mg): 9.8 ± 5.5
- IIEF erectile function domain (change from baseline), Mean ± SD ([1]; unit dose 100 mg): 8.4 ± 6.1
- patients who rated their ability to maintain an erection (IIEF Question 4) during intercourse as almost always or always ([2]; 2 mg group): 19.5%
- patients who rated their penetration ability (IIEF Question 3) as almost always or always ([2]; 2 mg group): 38.1%
- sexual performance of men with erectile dysfunction (IIEF, patient diaries, global assessment) ([2]; 2 mg, 5 mg, 10 mg and 25 mg taken on demand): significant improvement, relative to placebo
- patients who rated their ability to maintain an erection (IIEF Question 4) during intercourse as almost always or always ([2]; 5 mg group): 32.6%
- patients who rated their penetration ability (IIEF Question 3) as almost always or always ([2]; 5 mg group): 48.8%
- patients who rated their ability to maintain an erection (IIEF Question 4) during intercourse as almost always or always ([2]; 10 mg group): 39.0%
- patients who rated their penetration ability (IIEF Question 3) as almost always or always ([2]; 10 mg group): 51.2%
- patients who rated their ability to maintain an erection (IIEF Question 4) during intercourse as almost always or always ([2]; 25 mg group): 69.0%
- patients who rated their penetration ability (IIEF Question 3) as almost always or always ([2]; 25 mg group): 83.7%
- adverse events related to color vision disturbances [2, 5]: no adverse events related to color vision disturbances were reported
- severity of adverse events [2, 5]: mild or moderate in severity
- change in penetration ability versus placebo (IIEF Question 3) ([2]; all dose levels (2, 5, 10, 25 mg)): statistically significant differences
- change in penetration ability versus placebo (comparison reported for IIEF Question 4) ([2]; the three higher dose levels): statistically significant differences
- Treatment-Emergent Adverse Events (%): Back Pain ([3]; unit dose 2 mg): 3%
- Treatment-Emergent Adverse Events (%): Conjunctivitis ([3]; unit dose 2 mg): 0%
- Treatment-Emergent Adverse Events (%): Dyspepsia ([3]; unit dose 2 mg): 3%
- Treatment-Emergent Adverse Events (%): Eyelid Edema ([3]; unit dose 2 mg): 0%
- Treatment-Emergent Adverse Events (%): Flushing ([3]; unit dose 2 mg): 0%
- Treatment-Emergent Adverse Events (%): Headache ([3]; unit dose 2 mg): 12%
- Treatment-Emergent Adverse Events (%): Myalgia ([3]; unit dose 2 mg): 0%
- Treatment-Emergent Adverse Events (%): Rhinitis ([3]; unit dose 2 mg): 7%
- Treatment-Emergent Adverse Events (%): Vision Abnormalities ([3]; unit dose 2 mg): 0%
- Treatment-Emergent Adverse Events (%): Back Pain ([3]; unit dose 5 mg): 3%
- Treatment-Emergent Adverse Events (%): Conjunctivitis ([3]; unit dose 5 mg): 1%
- Treatment-Emergent Adverse Events (%): Dyspepsia ([3]; unit dose 5 mg): 14%
- Treatment-Emergent Adverse Events (%): Eyelid Edema ([3]; unit dose 5 mg): 0%
- Treatment-Emergent Adverse Events (%): Flushing ([3]; unit dose 5 mg): 0%
- Treatment-Emergent Adverse Events (%): Headache ([3]; unit dose 5 mg): 10%
- Treatment-Emergent Adverse Events (%): Myalgia ([3]; unit dose 5 mg): 3%
- Treatment-Emergent Adverse Events (%): Rhinitis ([3]; unit dose 5 mg): 3%
- Treatment-Emergent Adverse Events (%): Vision Abnormalities ([3]; unit dose 5 mg): 0%
- Treatment-Emergent Adverse Events (%): Back Pain ([3]; unit dose 10 mg): 15%
- Treatment-Emergent Adverse Events (%): Conjunctivitis ([3]; unit dose 10 mg): 1%
- Treatment-Emergent Adverse Events (%): Dyspepsia ([3]; unit dose 10 mg): 13%
- Treatment-Emergent Adverse Events (%): Eyelid Edema ([3]; unit dose 10 mg): 1%
- Treatment-Emergent Adverse Events (%): Flushing ([3]; unit dose 10 mg): <1%
- Treatment-Emergent Adverse Events (%): Headache ([3]; unit dose 10 mg): 23%
- Treatment-Emergent Adverse Events (%): Myalgia ([3]; unit dose 10 mg): 9%
- Treatment-Emergent Adverse Events (%): Rhinitis ([3]; unit dose 10 mg): 4%
- Treatment-Emergent Adverse Events (%): Vision Abnormalities ([3]; unit dose 10 mg): 0%
- Treatment-Emergent Adverse Events (%): Back Pain ([3]; unit dose 25 mg): 18%
- Treatment-Emergent Adverse Events (%): Conjunctivitis ([3]; unit dose 25 mg): 0%
- Treatment-Emergent Adverse Events (%): Dyspepsia ([3]; unit dose 25 mg): 19%
- Treatment-Emergent Adverse Events (%): Eyelid Edema ([3]; unit dose 25 mg): 1%
- Treatment-Emergent Adverse Events (%): Flushing ([3]; unit dose 25 mg): 0%
- Treatment-Emergent Adverse Events (%): Headache ([3]; unit dose 25 mg): 29%
- Treatment-Emergent Adverse Events (%): Myalgia ([3]; unit dose 25 mg): 16%
- Treatment-Emergent Adverse Events (%): Rhinitis ([3]; unit dose 25 mg): 4%
- Treatment-Emergent Adverse Events (%): Vision Abnormalities ([3]; unit dose 25 mg): 0%
- Treatment-Emergent Adverse Events (%): Back Pain ([3]; unit dose 50 mg): 24%
- Treatment-Emergent Adverse Events (%): Conjunctivitis ([3]; unit dose 50 mg): 2%
- Treatment-Emergent Adverse Events (%): Dyspepsia ([3]; unit dose 50 mg): 20%
- Treatment-Emergent Adverse Events (%): Eyelid Edema ([3]; unit dose 50 mg): 2%
- Treatment-Emergent Adverse Events (%): Flushing ([3]; unit dose 50 mg): 3%
- Treatment-Emergent Adverse Events (%): Headache ([3]; unit dose 50 mg): 34%
- Treatment-Emergent Adverse Events (%): Myalgia ([3]; unit dose 50 mg): 20%
- Treatment-Emergent Adverse Events (%): Rhinitis ([3]; unit dose 50 mg): 0%
- Treatment-Emergent Adverse Events (%): Vision Abnormalities ([3]; unit dose 50 mg): 0%
- Treatment-Emergent Adverse Events (%): Back Pain ([3]; unit dose 100 mg): 22%
- Treatment-Emergent Adverse Events (%): Conjunctivitis ([3]; unit dose 100 mg): 5%
- Treatment-Emergent Adverse Events (%): Dyspepsia ([3]; unit dose 100 mg): 25%
- Treatment-Emergent Adverse Events (%): Eyelid Edema ([3]; unit dose 100 mg): 3%
- Treatment-Emergent Adverse Events (%): Flushing ([3]; unit dose 100 mg): 7%
- Treatment-Emergent Adverse Events (%): Headache ([3]; unit dose 100 mg): 46%
- Treatment-Emergent Adverse Events (%): Myalgia ([3]; unit dose 100 mg): 29%
- Treatment-Emergent Adverse Events (%): Rhinitis ([3]; unit dose 100 mg): 2%
- Treatment-Emergent Adverse Events (%): Vision Abnormalities ([3]; unit dose 100 mg): 0%
- flushing [3, 6]: flushing was essentially eliminated
- vision abnormalities [3, 6]: no vision abnormalities were reported
- serious adverse events [4, 7]: no serious adverse events
- tolerability [4, 7]: well tolerated
- changes in laboratory safety assessments or 12-lead ECGs [4, 8]: no Study Drug-associated changes in laboratory safety assessments or 12-lead ECGs
- most common adverse events [4, 8]: headache, dyspepsia, and back pain
- effects on mean systolic blood pressure and on mean maximal nitroglycerin-induced decrease in systolic blood pressure ([4]; 10 mg daily, nitroglycerin 0.4 mg 3 hours after dosing, tilt table): minimal effects
- impact on systolic blood pressure ([4]; human clinical studies, administered in conjunction with organic nitrates): minimal impact on systolic blood pressure
